Measured values as given in ChEMBL document CHEMBL1201862, “PubChem BioAssay data set” (2004).
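Grown in 96-well plates, cells were treated for 48 hours with each compound at five concentrations. Insufficient inhibition: endpoint recorded as highest concentration tested. Here, GI50 denotes the concentration required for 50% inhibition of growth.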 The source made the active and inactive calls. Rule as the data show it: active = GI50 up to about 1.1 µM and inactive = higher.

Experiments:
Test in all cases: inhibition of tumour cell growth, NCI panel, 48 h
MDA-N = system: MDA-N
NCI/ADR-RES = system: NCI/ADR-RES
ACHN = system: ACHN
OVCAR-3 = system: OVCAR-3
OVCAR-4 = system: OVCAR-4
CAKI-1 = system: CAKI-1
PC-3 = system: PC-3
MDA-MB-435 = system: MDA-MB-435
COLO 205 = system: COLO 205
T47D = system: T47D
CCRF-CEM = system: CCRF-CEM
SF-539 = system: SF-539
RPMI-8226 = system: RPMI-8226
786-0 = system: 786-0
Hs-578T = system: Hs-578T
UACC-62 = system: UACC-62
SW-620 = system: SW-620
HOP-62 = system: HOP-62
SK-OV-3 = system: SK-OV-3
SK-MEL-2 = system: SK-MEL-2

Row | SMILES | GI50 (MDA-N) | GI50 (NCI/ADR-RES) | GI50 (ACHN) | GI50 (OVCAR-3) | GI50 (OVCAR-4) | GI50 (CAKI-1) | GI50 (PC-3) | GI50 (MDA-MB-435) | GI50 (COLO 205) | GI50 (T47D) | GI50 (CCRF-CEM) | GI50 (SF-539) | GI50 (RPMI-8226) | GI50 (786-0) | GI50 (Hs-578T) | GI50 (UACC-62) | GI50 (SW-620) | GI50 (HOP-62) | GI50 (SK-OV-3) | GI50 (SK-MEL-2)
1 | C=C1CCC2CC1C(C(=O)c1c[nH]c3ccccc13)=NC2(C)C (stereo not given) | > 100 µM (inactive) | > 100 µM (inactive) | > 100 µM (inactive) | > 100 µM (inactive) | > 100 µM (inactive) | > 100 µM (inactive) | > 100 µM (inactive) | > 100 µM (inactive) | > 100 µM (inactive) | 48.2 µM (inactive) | > 100 µM (inactive) | > 100 µM (inactive) | 91 µM (inactive) | > 100 µM (inactive) | > 100 µM (inactive) | > 100 µM (inactive) | > 100 µM (inactive) | > 100 µM (inactive) | > 100 µM (inactive) | 
2 | CCOC(=O)C1C(C)C2(C#N)C(=N)OC1(C)C2(C#N)C#N (stereo not given) | 46.1 µM (inactive) | > 100 µM (inactive) | 38.6 µM (inactive) |  |  | 53.6 µM (inactive) | > 100 µM (inactive) | 65.9 µM (inactive) | > 100 µM (inactive) | 48.1 µM (inactive) |  | 47.2 µM (inactive) | 18.5 µM (inactive) | 66.7 µM (inactive) | 40.9 µM (inactive) | 46 µM (inactive) | 84.7 µM (inactive) |  | > 100 µM (inactive) | 58.2 µM (inactive)
3 | COc1cc(-c2cc(OC)c(OC)c3ccc(Br)cc23)c2cc(Br)ccc2c1OC | 22.5 µM (inactive) | 33.7 µM (inactive) | 22.1 µM (inactive) | 21 µM (inactive) | 15 µM (inactive) | 47.4 µM (inactive) | 20.6 µM (inactive) | 23.7 µM (inactive) | 39.5 µM (inactive) | 31.6 µM (inactive) |  | 21.5 µM (inactive) | 21.4 µM (inactive) | 19.8 µM (inactive) | 38.8 µM (inactive) | 21.9 µM (inactive) | 80.5 µM (inactive) | 21.6 µM (inactive) | 30.8 µM (inactive) | 25.4 µM (inactive)
4 | COC(=O)c1cc(C)ccc1/C=C1\Cc2c(C)cc(C)cc2C1=O | 25.5 µM (inactive) | 64.3 µM (inactive) | 60.7 µM (inactive) | 70.6 µM (inactive) | 24.4 µM (inactive) | 30.6 µM (inactive) | > 39.8 µM (inactive) | 59 µM (inactive) | > 100 µM (inactive) | > 97.3 µM (inactive) | > 100 µM (inactive) | 15.6 µM (inactive) | 10.3 µM (inactive) | 14 µM (inactive) | 14 µM (inactive) | 6.59 µM (inactive) | > 100 µM (inactive) | 11.9 µM (inactive) |  | 22.8 µM (inactive)
5 | COC(=O)c1ccccc1/C=C1\Cc2ccc(C)c(C)c2C1=O | > 100 µM (inactive) | > 100 µM (inactive) | > 100 µM (inactive) | > 100 µM (inactive) | > 100 µM (inactive) | > 100 µM (inactive) | > 100 µM (inactive) | > 100 µM (inactive) | > 100 µM (inactive) | > 100 µM (inactive) | > 100 µM (inactive) | > 100 µM (inactive) | > 100 µM (inactive) | 51.4 µM (inactive) | 92.9 µM (inactive) | > 100 µM (inactive) | > 100 µM (inactive) | 59.8 µM (inactive) |  | > 100 µM (inactive)
6 | C/C1=C/C(C)CC(C)OC(=O)C(C)NC(=O)C(Cc2ccc(O)c(I)c2)N(C)C(=O)C(C)NC(=O)C(C)C1 (stereo not given) | < 0.01 µM (active) | 0.026 µM (active) | < 0.01 µM (active) | < 0.01 µM (active) | < 0.01 µM (active) | < 0.01 µM (active) | < 0.01 µM (active) | < 0.01 µM (active) | < 0.01 µM (active) | 0.0653 µM (active) | < 0.01 µM (active) | < 0.01 µM (active) | < 0.01 µM (active) | < 0.01 µM (active) | < 0.01 µM (active) | < 0.0256 µM (active) | < 0.01 µM (active) | < 0.01 µM (active) | < 0.01 µM (active) | 
7 | O=C(NN=C1NCCN1)c1ccco1 | > 100 µM (inactive) | > 100 µM (inactive) | > 100 µM (inactive) | > 100 µM (inactive) | > 100 µM (inactive) |  | > 100 µM (inactive) | > 100 µM (inactive) | > 100 µM (inactive) | > 100 µM (inactive) | > 100 µM (inactive) | > 100 µM (inactive) | > 100 µM (inactive) | > 100 µM (inactive) | > 100 µM (inactive) | > 100 µM (inactive) | > 100 µM (inactive) | > 100 µM (inactive) | > 100 µM (inactive) | > 100 µM (inactive)
8 | Cc1cc2nc(N)n[n+]([O-])c2cc1C | > 100 µM (inactive) | > 100 µM (inactive) | > 100 µM (inactive) |  |  | > 100 µM (inactive) | > 100 µM (inactive) | > 100 µM (inactive) | > 100 µM (inactive) | > 100 µM (inactive) | > 100 µM (inactive) | > 100 µM (inactive) | > 100 µM (inactive) | > 100 µM (inactive) | > 100 µM (inactive) | > 100 µM (inactive) | > 100 µM (inactive) | > 100 µM (inactive) | > 100 µM (inactive) | > 100 µM (inactive)
9 | O=C1CSC(c2cccc(Oc3ccccc3)c2)N1c1cccc(Cl)c1Cl (stereo not given) | 21 µM (inactive) | 21.9 µM (inactive) | 20.7 µM (inactive) | 30.5 µM (inactive) | 23.2 µM (inactive) | 65.2 µM (inactive) | 25.7 µM (inactive) | 13.7 µM (inactive) | 20 µM (inactive) | 35.8 µM (inactive) | 18.5 µM (inactive) | 22.9 µM (inactive) |  | 27.7 µM (inactive) | 27.8 µM (inactive) | 17.8 µM (inactive) | 29.1 µM (inactive) | 41.4 µM (inactive) | 65.9 µM (inactive) | 18.1 µM (inactive)
10 | Cc1ccc([S+]([O-])CC(CF)OCn2cc(C)c(=O)[nH]c2=O)cc1 (stereo not given) | > 100 µM (inactive) | > 100 µM (inactive) | > 100 µM (inactive) | > 100 µM (inactive) | > 100 µM (inactive) | > 100 µM (inactive) | > 100 µM (inactive) | > 100 µM (inactive) | > 100 µM (inactive) | > 100 µM (inactive) |  | > 100 µM (inactive) | > 100 µM (inactive) | > 100 µM (inactive) | > 100 µM (inactive) | > 100 µM (inactive) | > 100 µM (inactive) | > 100 µM (inactive) | > 100 µM (inactive) | > 100 µM (inactive)
11 | CC1=[N+](C)CCCN1C | > 100 µM (inactive) | > 100 µM (inactive) | > 100 µM (inactive) | > 100 µM (inactive) | > 100 µM (inactive) | > 100 µM (inactive) | > 100 µM (inactive) | > 100 µM (inactive) | > 100 µM (inactive) | > 100 µM (inactive) | > 100 µM (inactive) | > 100 µM (inactive) | > 100 µM (inactive) | > 100 µM (inactive) | > 100 µM (inactive) |  | > 100 µM (inactive) | > 100 µM (inactive) | > 100 µM (inactive) | > 100 µM (inactive)
